Experimental data reported in patent publication US7579335B2, “Androstane 17α-carbonate derivatives for use in the treatment of allergic and inflammatory conditions” (Glaxo Group Limited, priority 2005, dated 2009).

Tests used:
glucocorticoid receptor [1] = target: T1, glucocorticoid receptor (Homo sapiens, UniProt P04150); experiment: Assay for transactivation activity of the glucocorticoid agonists (MMTV-LTR renilla luciferase reporter); assay type: cell-based; conditions: A549, A549 cells, 6 hour at 37° C., read-out: maximal response relative to Dexamethasone (100%), transactivation
T1 sequence (P04150 1-777): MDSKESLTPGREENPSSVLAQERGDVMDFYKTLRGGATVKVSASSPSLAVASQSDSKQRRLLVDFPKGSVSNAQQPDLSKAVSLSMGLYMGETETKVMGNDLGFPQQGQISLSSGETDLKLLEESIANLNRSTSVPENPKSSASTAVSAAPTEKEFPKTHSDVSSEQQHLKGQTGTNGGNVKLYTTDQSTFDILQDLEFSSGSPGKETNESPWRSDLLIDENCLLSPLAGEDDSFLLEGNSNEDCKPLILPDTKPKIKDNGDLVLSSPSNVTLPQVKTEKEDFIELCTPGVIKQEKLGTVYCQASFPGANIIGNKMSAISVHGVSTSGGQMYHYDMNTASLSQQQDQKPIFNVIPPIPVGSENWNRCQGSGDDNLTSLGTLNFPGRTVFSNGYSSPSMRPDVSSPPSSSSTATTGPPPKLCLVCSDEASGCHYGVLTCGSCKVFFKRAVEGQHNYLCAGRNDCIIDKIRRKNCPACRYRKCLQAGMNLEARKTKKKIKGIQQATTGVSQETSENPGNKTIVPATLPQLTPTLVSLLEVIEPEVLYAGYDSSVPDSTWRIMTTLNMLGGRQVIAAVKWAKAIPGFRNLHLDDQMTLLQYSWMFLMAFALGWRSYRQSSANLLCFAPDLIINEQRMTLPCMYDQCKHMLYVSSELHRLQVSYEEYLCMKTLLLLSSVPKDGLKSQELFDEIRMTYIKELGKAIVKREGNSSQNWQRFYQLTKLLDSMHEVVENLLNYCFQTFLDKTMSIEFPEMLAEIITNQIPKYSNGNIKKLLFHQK
Experimental: Assay for Transactivation Activity of the Glucocorticoid Agonists
The functional assay based on that described by R. J. H. Austin et al., Eur Resp J. (2002), 20, 1386-1392 measures the ability of compounds to directly transactivate gene expression. A549 cells stably transfected with a reporter gene containing the glucocorticoid responsive region of the mouse mammary tumour virus long terminal repeat (MMTV-LTR) coupled to renilla luciferase were treated with test compounds at appropriate doses for 6 hour at 37° C. The amount of luciferase activity present within the cells is then determined by measuring the light emitted following incubation with a suitable substrate. Dose response curves were constructed from which EC50 values were estimated and from which maximal responses are calculated relative to Dexamethasone (100%).

glucocorticoid receptor [2] = target: T1, glucocorticoid receptor; experiment: Assay for transrepression activity of the glucocorticoid agonists (NF-κB/ELAM-sPAP reporter, TNF stimulated); assay type: cell-based; conditions: A549 cells, NF-κB responsive ELAM promoter-sPAP reporter; compound 1 hour, then TNF 10 ng/ml for 16 hours; read-out: pEC50 transrepression (converted)
Experimental: Assay for Transrepression Activity of the Glucocorticoid Agonists
The functional assay based on that described by K. P. Ray et al., Biochem J. (1997), 328, 707-715 provides a measure of transrepressive activity of a glucocorticoid agonist. A549 cells stably transfected with a reporter gene containing the NF-κB responsive elements from the ELAM gene promoter coupled to sPAP (secreted alkaline phosphatase) are treated with test compounds at appropriate doses for 1 hour at 37° C. The cells are then stimulated with tumour necrosis factor (TNF, 10 ng/ml) for 16 hours, at which time the amount of alkaline phosphatase produced is measured by a standard colourimetric assay. Dose response curves were constructed from which EC50 values were estimated.

SMILES	Emax (glucocorticoid receptor [1]) [%]	EC50 (glucocorticoid receptor [2]) [nM]
CC[C@H]1CC[C@H](OC(=O)O[C@]2(C(=O)OCC#N)[C@H](C)C[C@H]3[C@@H]4C[C@H](F)C5=CC(=O)C=C[C@]5(C)[C@@]4(F)[C@@H](O)C[C@@]32C)CC1 (relative stereo) [Example 19, Cyanomethyl (6α,11β,16α,17α)-17-({[(trans-4-ethylcyclohexyl)oxy]carbonyl}oxy)-6,9-difluoro-11-hydroxy-16-methyl-3-oxoandrosta-1,4-diene-17-carboxylate]	< 40	–
CC[C@H]1CC[C@@H](OC(=O)O[C@]2(C(=O)OCC#N)[C@H](C)C[C@H]3[C@@H]4C[C@H](F)C5=CC(=O)C=C[C@]5(C)[C@@]4(F)[C@@H](O)C[C@@]32C)CC1 (relative stereo) [Example 20, Cyanomethyl (6α,11β,16α,17α)-17-({[(cis-4-ethylcyclohexyl)oxy]carbonyl}oxy)-6,9-difluoro-11-hydroxy-16-methyl-3-oxoandrosta-1,4-diene-17-carboxylate]	< 40	–
CC(C)C1CCC(OC(=O)O[C@]2(C(=O)OCC#N)[C@H](C)C[C@H]3[C@@H]4C[C@H](F)C5=CC(=O)C=C[C@]5(C)[C@@]4(F)[C@@H](O)C[C@@]32C)CC1 (single isomer, unassigned) [Example 11B, Cyanomethyl (6α,11β,16α,17α)-6,9-difluoro-11-hydroxy-16-methyl-17-[({[4-(1-methylethyl)cyclohexyl]oxy}carbonyl)oxy]-3-oxoandrosta-1,4-diene-17-carboxylate]	–	< 0.316
C[C@@H]1C[C@H]2[C@@H]3C[C@H](F)C4=CC(=O)C=C[C@]4(C)[C@@]3(F)[C@@H](O)C[C@]2(C)[C@@]1(OC(=O)OC(C)(C)C)C(=O)OCC#N [Example 1, Cyanomethyl (6α,11β,16α,17α)-17-({[(1,1-dimethylethyl)oxy]carbonyl}oxy)-6,9-difluoro-11-hydroxy-16-methyl-3-oxoandrosta-1,4-diene-17-carboxylate]	–	< 0.1
CCC(C)(C)OC(=O)O[C@]1(C(=O)OCC#N)[C@H](C)C[C@H]2[C@@H]3C[C@H](F)C4=CC(=O)C=C[C@]4(C)[C@@]3(F)[C@@H](O)C[C@@]21C [Example 2, Cyanomethyl (6α,11β,16α,17α)-17-({[(1,1-dimethylpropyl)oxy]carbonyl}oxy)-6,9-difluoro-11-hydroxy-16-methyl-3-oxoandrosta-1,4-diene-17-carboxylate]	–	< 0.1
CCC(CC)OC(=O)O[C@]1(C(=O)OCC#N)[C@H](C)C[C@H]2[C@@H]3C[C@H](F)C4=CC(=O)C=C[C@]4(C)[C@@]3(F)[C@@H](O)C[C@@]21C [Example 3, Cyanomethyl (6α,11β,16α,17α)-17-({[(1-ethylpropyl)oxy]carbonyl}oxy)-6,9-difluoro-11-hydroxy-16-methyl-3-oxoandrosta-1,4-diene-17-carboxylate]	–	< 0.316
CC(C)C(OC(=O)O[C@]1(C(=O)OCC#N)[C@H](C)C[C@H]2[C@@H]3C[C@H](F)C4=CC(=O)C=C[C@]4(C)[C@@]3(F)[C@@H](O)C[C@@]21C)C(C)C [Example 4, Cyanomethyl (6α,11β,16α,17α)-6,9-difluoro-11-hydroxy-16-methyl-17-[({[2-methyl-1-(1-methylethyl)propyl]oxy}carbonyl)oxy]-3-oxoandrosta-1,4-diene-17-carboxylate]	–	< 0.316
CCC(CC)COC(=O)O[C@]1(C(=O)OCC#N)[C@H](C)C[C@H]2[C@@H]3C[C@H](F)C4=CC(=O)C=C[C@]4(C)[C@@]3(F)[C@@H](O)C[C@@]21C [Example 5, Cyanomethyl (6α,11β,16α,17α)-17-({[(2-ethylbutyl)oxy]carbonyl}oxy)-6,9-difluoro-11-hydroxy-16-methyl-3-oxoandrosta-1,4-diene-17-carboxylate]	< 40	< 0.316
C[C@@H]1C[C@H]2[C@@H]3C[C@H](F)C4=CC(=O)C=C[C@]4(C)[C@@]3(F)[C@@H](O)C[C@]2(C)[C@@]1(OC(=O)OCC(C)(C)C)C(=O)OCC#N [Example 6, Cyanomethyl (6α,11β,16α,17α)-17-({[(2,2-dimethylpropyl)oxy]carbonyl}oxy)-6,9-difluoro-11-hydroxy-16-methyl-3-oxoandrosta-1,4-diene-17-carboxylate]	–	< 0.316
CCC(OC(=O)O[C@]1(C(=O)OCC#N)[C@H](C)C[C@H]2[C@@H]3C[C@H](F)C4=CC(=O)C=C[C@]4(C)[C@@]3(F)[C@@H](O)C[C@@]21C)C(C)C (stereo partly drawn) [Example 7, Cyanomethyl (6α,11β,16α,17α)-17-({[(1-ethyl-2-methylpropyl)oxy]carbonyl}oxy)-6,9-difluoro-11-hydroxy-16-methyl-3-oxoandrosta-1,4-diene-17-carboxylate]	< 40	< 0.316
CC(C)C(C)OC(=O)O[C@]1(C(=O)OCC#N)[C@H](C)C[C@H]2[C@@H]3C[C@H](F)C4=CC(=O)C=C[C@]4(C)[C@@]3(F)[C@@H](O)C[C@@]21C (stereo partly drawn) [Example 8, Cyanomethyl (6α,11β,16α,17α)-17-({[(1,2-dimethylpropyl)oxy]carbonyl}oxy)-6,9-difluoro-11-hydroxy-16-methyl-3-oxoandrosta-1,4-diene-17-carboxylate]	< 40	< 0.316
C[C@@H]1C[C@H]2[C@@H]3C[C@H](F)C4=CC(=O)C=C[C@]4(C)[C@@]3(F)[C@@H](O)C[C@]2(C)[C@@]1(OC(=O)OC1CCCC1)C(=O)OCC#N [Example 9, Cyanomethyl (6α,11β,16α,17α)-17-{[(cyclopentyloxy)carbonyl]oxy}-6,9-difluoro-11-hydroxy-16-methyl-3-oxoandrosta-1,4-diene-17-carboxylate]	< 40	< 0.316
CCCC(CCC)OC(=O)O[C@]1(C(=O)OCC#N)[C@H](C)C[C@H]2[C@@H]3C[C@H](F)C4=CC(=O)C=C[C@]4(C)[C@@]3(F)[C@@H](O)C[C@@]21C [Example 21, Cyanomethyl (6α,11β16α,17α)-6,9-difluoro-11-hydroxy-16-methyl-3-oxo-17-({[(1-propylbutyl)oxy]carbonyl}oxy)androsta-1,4-diene-17-carboxylate]	< 40	–
CC1CC2C3CC(F)C4=CC(=O)C=CC4(C)C3(F)C(O)CC2(C)C1(OC(=O)OC1CC2CCC1(C)C2(C)C)C(=O)OCC#N (stereo not drawn) [Example 22, Cyanomethyl (6α,11β,16α,17α)-6,9-difluoro-11-hydroxy-16-methyl-3-oxo-17-[({[(1RS,2RS,4RS)-1,7,7-trimethylbicyclo[2.2.1]hept-2-yl]oxy}carbonyl)oxy]androsta-1,4-diene-17-carboxylate]	< 40	–
CC(OC(=O)O[C@]1(C(=O)OCC#N)[C@H](C)C[C@H]2[C@@H]3C[C@H](F)C4=CC(=O)C=C[C@]4(C)[C@@]3(F)[C@@H](O)C[C@@]21C)C(C)(C)C (stereo partly drawn) [Example 23, Cyanomethyl (6α,11β,16α,17α)-6,9-difluoro-11-hydroxy-16-methyl-3-oxo-17-({[(1,2,2-trimethylpropyl)oxy]carbonyl}oxy)androsta-1,4-diene-17-carboxylate]	< 40	–
CCCC(OC(=O)O[C@]1(C(=O)OCC#N)[C@H](C)C[C@H]2[C@@H]3C[C@H](F)C4=CC(=O)C=C[C@]4(C)[C@@]3(F)[C@@H](O)C[C@@]21C)C(C)C (stereo partly drawn) [Example 24, Cyanomethyl (6α,11β,16α,17α)-6,9-difluoro-11-hydroxy-16-methyl-17-[({[1-(1-methylethyl)butyl]oxy}carbonyl)oxy]-3-oxoandrosta-1,4-diene-17-carboxylate]	< 40	–
